Measurements as given in ChEMBL document CHEMBL1125953, “Probing the inhibition of leukotriene A4 hydrolase based on its aminopeptidase activity” (Bioorg Med Chem Lett, 1991).
Blank lines part the entries; values can stand above or below the molecule they belong to.

Columns and labels:
[1] = molecular target: T1, Leukotriene A-4 hydrolase (Homo sapiens, UniProt P09960); test: Compound was tested for inhibitory activity against Leukotriene A4 hydrolase from human leukocytes; NI means no inhibition at 1 mM
T1 sequence (P09960 whole entry): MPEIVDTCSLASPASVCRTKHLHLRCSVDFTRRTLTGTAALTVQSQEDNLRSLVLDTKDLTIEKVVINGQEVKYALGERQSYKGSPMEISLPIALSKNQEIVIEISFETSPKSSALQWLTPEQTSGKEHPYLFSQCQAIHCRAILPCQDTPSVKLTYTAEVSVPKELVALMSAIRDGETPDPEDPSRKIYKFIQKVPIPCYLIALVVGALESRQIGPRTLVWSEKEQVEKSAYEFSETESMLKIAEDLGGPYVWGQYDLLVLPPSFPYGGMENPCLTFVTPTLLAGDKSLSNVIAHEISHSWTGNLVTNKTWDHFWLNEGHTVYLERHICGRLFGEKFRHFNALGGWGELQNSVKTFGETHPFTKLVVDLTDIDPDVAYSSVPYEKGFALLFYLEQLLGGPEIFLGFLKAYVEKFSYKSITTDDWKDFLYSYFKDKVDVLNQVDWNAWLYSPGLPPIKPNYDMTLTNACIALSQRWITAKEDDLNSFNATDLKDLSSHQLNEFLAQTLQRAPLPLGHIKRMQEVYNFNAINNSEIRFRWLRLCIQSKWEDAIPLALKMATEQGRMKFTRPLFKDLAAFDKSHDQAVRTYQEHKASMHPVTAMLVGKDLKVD

[2] = Ratio of catalytic constant to that of Michaelis-Menten constant for LTA4 hydrolase-catalyzed hydrolysis was determined
[3] = molecular target: T1, Leukotriene A-4 hydrolase; test: Inhibitory activity against Leukotriene A4 hydrolase from human leukocytes
[4] = substrate: CC(C)C[C@H](N)C(=O)Nc1ccc([N+](=O)[O-])cc1; test: (§1) Michaelis-Menten constant of compound for Leukotriene A4 hydrolase catalyzed hydrolysis was determined
[5] = substrate: CCCCC/C=C\C/C=C\C=C\C=C\[C@@H]1O[C@H]1CCCC(=O)O; test: as §1
[6] = substrate: O=C(Nc1ccc([N+](=O)[O-])cc1)[C@@H]1CCCN1; test: as §1
[7] = substrate: C[C@@H](N)C(=O)Nc1ccc([N+](=O)[O-])cc1; test: as §1
[8] = substrate: NCCCC[C@@H](N)C(=O)Nc1ccc([N+](=O)[O-])cc1; test: as §1
[9] = substrate: NC(N)=NCCC[C@@H](N)C(=O)Nc1ccc([N+](=O)[O-])cc1; test: as §1
[10] = substrate: C[C@H](N)C(=O)Nc1ccc([N+](=O)[O-])cc1; test: Maximum velocity of amino acid amides was tested as substrates for Leukotriene A4 hydrolase
[11] = substrate: CC(C)C[C@H](N)C(=O)Nc1ccc([N+](=O)[O-])cc1; test: (§2) Maximum velocity of amino acid amides was tested as substrates for Leukotriene A4 hydrolase catalyzed hydrolysis
[12] = substrate: CCCCC/C=C\C/C=C\C=C\C=C\[C@@H]1O[C@H]1CCCC(=O)O; test: as §2
[13] = substrate: O=C(Nc1ccc([N+](=O)[O-])cc1)[C@@H]1CCCN1; test: as §2
[14] = substrate: NC(N)=NCCC[C@@H](N)C(=O)Nc1ccc([N+](=O)[O-])cc1; test: as §2
[15] = substrate: C[C@@H](N)C(=O)Nc1ccc([N+](=O)[O-])cc1; test: (§3) Maximum velocity of amino acid amides was tested as substrates for LTA4 hydrolase-catalyzed hydrolysis
[16] = substrate: NCCCC[C@@H](N)C(=O)Nc1ccc([N+](=O)[O-])cc1; test: as §3

Molecule: N[C@@H](Cc1ccccc1)[C@H](O)C(=O)NCCC(=O)O
IC50 [3]: ~80 µM

Molecule: NCCCC[C@@H](N)C(=O)Nc1ccc([N+](=O)[O-])cc1
k cat/Km [2]: 350 M⁻¹ s⁻¹

Molecule: NC(N)=NCCC[C@@H](N)C(=O)Nc1ccc([N+](=O)[O-])cc1
k cat/Km [2]: 750 M⁻¹ s⁻¹

Molecule: CCCCC/C=C\C\C=C/C=C/C=C/[C@@H]1O[C@H]1CCCC(=O)O
k cat/Km [2]: 90000 M⁻¹ s⁻¹

Molecule: COC(=O)[C@H](O)[C@H](N)Cc1ccccc1
IC50 [1]: No inhibition

Molecule: COC(=O)C(S)[C@@H](N)Cc1ccccc1 (stereo partly specified)
IC50 [3]: ~250 µM

Molecule: COC(=O)[C@H](O)[C@@H](N)Cc1ccccc1
IC50 [3]: > 500 µM

Molecule: C[C@H](CS)C(=O)N1CCC[C@H]1C(=O)O [CAPTOPRIL]
IC50 [3]: 0.07 µM

Molecule: COC(=O)C(S)[C@H](N)Cc1ccccc1 (stereo partly specified)
IC50 [3]: > 250 µM

Molecule: NC(Cc1ccccc1)P(=O)(O)NCC(=O)O (stereo unspecified)
IC50 [3]: ~200 µM

B1: Leukotriene A-4 hydrolase (Homo sapiens), P09960 (protein)
chain: T1 sequence (P09960 whole entry)
Km [4]: 300 µM
Km [5]: 7.6 µM
Km [6]: 100 µM
Km [7]: 500 µM
Km [8]: 100 µM
Km [9]: 200 µM
Vmax (nM min-1 mg-1) [10]: 0
Vmax (nM min-1 mg-1) [11]: 130
Vmax (nM min-1 mg-1) [12]: 572
Vmax (nM min-1 mg-1) [13]: 130
Vmax (nM min-1 mg-1) [14]: 140
Vmax (nM min-1 mg-1) [15]: 530
Vmax (nM min-1 mg-1) [16]: 30

Now from value to molecule:

IC50 [1]: No inhibition
Molecule: COC(=O)[C@@H](O)[C@H](N)Cc1ccccc1

k cat/Km [2]: 1200 M⁻¹ s⁻¹
Molecule: C[C@@H](N)C(=O)Nc1ccc([N+](=O)[O-])cc1

k cat/Km [2]: 1500 M⁻¹ s⁻¹
Molecule: O=C(Nc1ccc([N+](=O)[O-])cc1)[C@@H]1CCCN1

IC50 [3]: > 5000 µM
Molecule: CCOC(=O)CC(F)(F)C(=O)/C=C/c1ccccc1

IC50 [3]: ~100 µM
Molecule: N[C@H](Cc1ccccc1)[C@H](O)C(=O)NCCC(=O)O

IC50 [1]: No inhibition
Molecule: N[C@H](Cc1ccccc1)[C@H](O)C(=O)O

k cat/Km [2]: 500 M⁻¹ s⁻¹
Molecule: CC(C)CC(N)C(=O)Nc1ccc([N+](=O)[O-])cc1 (single isomer, unassigned)

IC50 [3]: > 1000 µM
Molecule: N[C@@H](Cc1ccccc1)[C@H](O)C(=O)O
